# Measured values as given in patent US8673938B2, “Chemical compounds” (priority 2006, dated 2014).
# Biological target: T1, human 11βHSD1 enzyme (Homo sapiens (Human), UniProt P28845)
# Assay: not given
# Settings: repeat assays
# T1 sequence (P28845 whole entry): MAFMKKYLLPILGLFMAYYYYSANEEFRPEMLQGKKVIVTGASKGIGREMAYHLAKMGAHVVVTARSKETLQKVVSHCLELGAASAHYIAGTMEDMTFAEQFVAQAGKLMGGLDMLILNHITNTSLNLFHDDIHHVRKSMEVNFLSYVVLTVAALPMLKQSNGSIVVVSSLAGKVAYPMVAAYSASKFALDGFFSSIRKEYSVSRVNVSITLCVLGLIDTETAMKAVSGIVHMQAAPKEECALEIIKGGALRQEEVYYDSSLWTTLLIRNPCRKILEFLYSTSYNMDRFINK
row,Structure (SMILES),50% inhibition of the enzyme achieved
1,O=C(O)C[C@@H]1CCCN(c2ccc(C(=O)NC3C4CC5CC(C4)CC3C5)cn2)C1 (stereo partly drawn) [2-[(3S)-1-[5-(2-adamantylcarbamoyl)pyridin-2-yl]-3-piperidyl]acetic acid],"achieved 50% inhibition in one assay, but in a subsequent 3 assays did not"

# Same assay, conditions: test concentration of 30 μM of compound
row,Structure (SMILES),% inhibition of human 11-βHSD [%]
1,O=C(O)C[C@@H]1CCCN(c2ccc(C(=O)N[C@H]3C4CC5CC3C[C@@](O)(C5)C4)c(C3CC3)n2)C1 [compound 167],95
2,Cc1nc(N2CCC[C@@H](CC(=O)O)C2)ccc1C(=O)NC1C2CC3CC(C2)CC1C3 (stereo partly shown) [compound 161],84
3,O=C(O)C[C@@H]1CCCN(c2ccc(C(=O)NC3CCCCC3)c(N3CCCC3)n2)C1 [compound 155],94
4,O=C(O)C[C@@H]1CCCN(c2ccc(C(=O)NC3CCCCC3)c(C3CC3)n2)C1 [compound 165],95
5,Cc1nc(N2CCC[C@@H](CC(=O)O)C2)ccc1C(=O)NC12CC3CC(CC(C3)C1)C2 [compound 160],80
6,O=C(O)C[C@@H]1CCCN(c2ccc(C(=O)N[C@H]3C4CC5CC3C[C@@](O)(C5)C4)c(SCc3ccccc3)n2)C1 [compound 107],90
7,O=C(O)C[C@@H]1CCCN(c2ccc(C(=O)NC3CCCCC3)cn2)C1 [compound 133],58
8,Cc1nc(N2CCC[C@@H](CC(=O)O)C2)ccc1C(=O)NC1CCCCC1 [compound 159],55
9,O=C(O)C[C@@H]1CCCN(c2ccc(C(=O)NC3C4CC5CC(C4)CC3C5)c(C3CC3)n2)C1 (stereo partly shown) [compound 166],95
10,O=C(O)C[C@@H]1CCCN(c2ccc(C(=O)NC3C4CC5CC3CC(O)(C5)C4)c(SCCc3ccccc3)n2)C1 (stereo partly shown) [compound 108],88
11,O=C(O)C[C@@H]1CCCN(c2ccc(C(=O)NC3CCCCC3)c(N3CCOCC3)n2)C1 [compound 156],78

# Biological target: T1, human 11βHSD1 enzyme
# Assay: biochemical
# Settings: not given
row,Structure (SMILES),IC50 [µM]
1,"O=C(O)C[C@@H]1CCCN(c2ccc(C(=O)NC34CC5CC(CC(C5)C3)C4)cn2)C1 [{(3S)-1-[5-(adamantan-1-ylcarbamoyl)pyridin-2-yl]piperidin-3-yl}acetic acid, reference compound]",> 30

# Same assay, conditions: read-out: % inhibition of human 11-βHSD
row,Structure (SMILES),inhibition at 30 µM [%]
1,"O=C(O)C[C@@H]1CCCN(c2ccc(C(=O)NC3CCCCC3)c(N3CCN(c4ccccc4)CC3)n2)C1 [compound 145, 2-[(3S)-1-[5-(cyclohexylcarbamoyl)-6-(4-phenylpiperazin-1-yl)pyridin-2-yl]-3-piperidyl]acetic acid]",84
2,"CCCSc1nc(Sc2cccc(C(=O)O)c2)ccc1C(=O)NC1CCCCC1 [Example 14, 3-[5-(cyclohexylcarbamoyl)-6-propylsulfanyl-pyridin2-yl]sulfanylbenzoic acid]",78
3,"CCCSc1nc(N2CCC(C(=O)O)CC2)ccc1C(=O)N[C@H]1C2CC3CC1C[C@@](O)(C3)C2 [Example 84, 1-[5-[[(2r,5s)-5-hydroxy-2-adamantyl]carbamoyl]-6-propylsulfanyl-pyridin-2-yl]piperidine-4-carboxylic acid]",101
4,"CCCSc1nc(N2CC[C@@H](CC(=O)O)C2)ccc1C(=O)NC1C2CC3CC(C2)CC1C3 (stereo partly drawn) [Example 62, 2-[(3S)-1-[5-(2-adamantylcarbamoyl)-6-propylsulfanyl-pyridin-2-yl]pyrrolidin-3-yl]acetic acid]",89
5,"CCCSc1nc(N2CCC(C(=O)O)C2)ccc1C(=O)N[C@H]1C2CC3CC1C[C@](OC(F)F)(C3)C2 (stereo partly drawn) [Example 185, 1-[5-[[(2r,5S)-5-(difluoromethoxy)-2-adamantyl]carbamoyl]-6-propylsulfanyl-pyridin-2-yl]pyrrolidine-3-carboxylic acid]",97
6,"O=C(O)C[C@@H]1CCCN(c2ccc(C(=O)NC3CCCCC3)c(NCCc3ccccc3)n2)C1 [compound 152, 2-[(3S)-1-[5-(cyclohexylcarbamoyl)-6-(phenethylamino)pyridin-2-yl]-3-piperidyl]acetic acid]",81
7,"O=C(O)CO[C@@H]1CCN(c2ccc(C(=O)NC3C4CC5CC(C4)CC3C5)c(SC3CCCCC3)n2)C1 (stereo partly drawn) [Example 72, 2-[(3R)-1-[5-(2-adamantylcarbamoyl)-6-cyclohexylsulfanyl-pyridin-2-yl]pyrrolidin-3-yl]oxyacetic acid]",84
8,"CCCSc1nc(N2CC[C@H](CC(=O)O)C2)ccc1C(=O)N[C@H]1C2CC3CC1C[C@](OC(F)F)(C3)C2 [Example 184, 2-[(3R)-1-[5-[[(2r,5s)-5-(difluoromethoxy)-2-adamantyl]carbamoyl]-6-propylsulfanyl-pyridin-2-yl]pyrrolidin-3-yl]acetic acid]",94
9,"CCCSc1nc(N2CCC[C@H]2C(=O)O)ccc1C(=O)NC1C2CC3CC(C2)CC1C3 (stereo partly drawn) [Example 65, (2S)-1-[5-(2-adamantylcarbamoyl)-6-propylsulfanyl-pyridin-2-yl]pyrrolidine-2-carboxylic acid]",89
10,"CCCSc1nc(N2CCC(C(C)C(=O)O)CC2)ccc1C(=O)NC1CCCCC1 (stereo not shown) [Example 28, 2-[1-[5-(cyclohexylcarbamoyl)-6-propylsulfanyl-pyridin-2-yl]-4-piperidyl]propanoic acid]",86
11,"O=C(O)C[C@H]1CCN(c2ccc(C(=O)NC3CCCCC3)c(SC3CCCCC3)n2)C1 [Example 57, 2-[(3R)-1-[5-(cyclohexylcarbamoyl)-6-cyclohexylsulfanyl-pyridin-2-yl]pyrrolidin-3-yl]acetic acid]",97
12,"CCCSc1nc(N2CCC[C@H](CC(=O)O)C2)ccc1C(=O)N[C@H]1C2CC3CC1C[C@@](O)(C3)C2 [Example 85, 2-[(3R)-1-[5-[[(2r,5s)-5-hydroxy-2-adamantyl]carbamoyl)-6-propylsulfanyl-pyridin-2-yl]-3-piperidyl]acetic acid]",89
13,"CC(C)(O)C1CCCN(C(=O)c2ccc(N3CCC[C@@H](CC(=O)O)C3)nc2SC2CCCC2)C1 (stereo partly drawn) [Example 128, 2-[(3S)-1-[6-cyclopentylsulfanyl-5-[3-(2-hydroxypropan-2-yl)piperidine-1-carbonyl]pyridin-2-yl]-3-piperidyl]acetic acid]",91
14,"CCCOc1nc(N2CCC[C@@H](CC(=O)O)C2)ccc1C(=O)N[C@H]1C2CC3CC1C[C@](OC(F)F)(C3)C2 [Example 181, 2-[(3S)-1-[5-[[(2r,5s)-5-(Difluoromethoxy)-2-adamantyl]carbamoyl]-6-propoxy-pyridin-2-yl]-3-piperidyl]acetic acid]",93
15,"O=C(O)C[C@@H]1CCCN(c2ccc(C(=O)NC3CCCCC3)c(N3CCN(S(=O)(=O)c4ccccc4)CC3)n2)C1 [compound 149, 2-[(3S)-1-[6-[4-(benzenesulfonyl)piperazin-1-yl]-5-(cyclohexyl-carbamoyl)pyridin-2-yl]-3-piperidyl]acetic acid]",83
16,"CCCSc1nc(N2CCC[C@@H](CC(=O)O)C2)ccc1C(=O)N(C)[C@H]1C2CC3CC1C[C@](O)(C3)C2 [Example 171, [(3S)-1-{5-[((2r,5s)-5-Hydroxyadamantan-2-yl)(methyl)carbamoyl]-6-(propylthio)pyridin-2-yl}piperidin-3-yl]acetic acid]",97
17,"CN(CCc1ccccc1)c1nc(N2CCC[C@@H](CC(=O)O)C2)ccc1C(=O)NC1CCCCC1 [compound 153, 2-[(3S)-1-[5-(cyclohexylcarbamoyl)-6-(methyl-phenethyl-amino)pyridin-2-yl]-3-piperidyl]acetic acid]",92
18,"CCCSc1nc(N2CC[C@@H](C(=O)O)C2)ccc1C(=O)NC1C2CC3CC(C2)CC1C3 (stereo partly drawn) [Example 63, (3R)-1-[5-(2-adamantylcarbamoyl)-6-propylsulfanyl-pyridin-2-yl]pyrrolidine-3-carboxylic acid]",91
19,O=C(O)C[C@@H]1CCCN(c2ccc(C(=O)N[C@H]3C4CC5CC3C[C@@](O)(C5)C4)c(SC3CCCCC3)n2)C1 [Example 103],90
20,CCCSc1nc(N2CCC[C@@H](CC(=O)O)C2)ccc1C(=O)N[C@H]1C2CC3CC1C[C@@](O)(C3)C2 [Example 83],87
21,"CCCSc1nc(N2CCC(OCC(=O)O)C2)ccc1C(=O)NC1CCCCC1 (stereo not shown) [Example 43, 2-[1-[5-(cyclohexylcarbamoyl)-6-propylsulfanyl-pyridin-2-yl]pyrrolidin-3-yl]oxyacetic acid]",92
22,"CCCSc1nc(NCC2CCC(C(=O)O)CC2)ccc1C(=O)N[C@H]1C2CC3CC1C[C@](O)(C3)C2 (stereo partly shown) [Example 80, 4-[[[5-[((2r,5s)-5-hydroxy-2-adamantyl)carbamoyl]-6-propylsulfanyl-pyridin-2-yl]amino]methyl]cyclohexane-1-carboxylic acid]",94
23,"CCCSc1nc(N2CCCC(C(=O)O)CC2)ccc1C(=O)NC1CCCCC1 (stereo not shown) [Example 31, 1-[5-(cyclohexylcarbamoyl)-6-propylsulfanyl-pyridin-2-yl]azepane-4-carboxylic acid]",94
24,"O=C(O)C[C@@H]1CCCN(c2ccc(C(=O)NC3CCCCC3)c(N3CCc4ccccc4C3)n2)C1 [compound 144, 2-[(3S)-1-[5-(cyclohexylcarbamoyl)-6-(3,4-dihydro-1H-isoquinolin-2-yl)pyridin-2-yl]-3-piperidyl]acetic acid]",93
25,"CCCSc1nc(Sc2ccccc2C(=O)O)ccc1C(=O)NC1CCCCC1 [Example 24, 2-[5-(cyclohexylcarbamoyl)-6-propylsulfanyl-pyridin-2-yl]sulfanylbenzoic acid]",77
26,"O=C(O)CO[C@H]1CCN(c2ccc(C(=O)NC3C4CC5CC(C4)CC3C5)c(SC3CCCCC3)n2)C1 (stereo partly drawn) [Example 71, 2-[(3S)-l-[5-(2-adamantylcarbamoyl)-6-cyclohexylsulfanyl-pyridin-2-yl]pyrrolidin-3-yl]oxyacetic acid]",92
27,"O=C(O)C[C@H]1CCCN(c2ccc(C(=O)NC3CCCCC3)c(SC3CCCC3)n2)C1 [Example 55, 2-[(3R)-1-[5-(cyclohexylcarbamoyl)-6-cyclopentylsulfanyl-pyridin-2-yl]-3-piperidyl]acetic acid]",89
